# Measurements: US20230192705A1, “SHP2 INHIBITORS, COMPOSITIONS AND USES THEREOF” (Betta Pharmaceuticals Co., Ltd, priority 2020, published 2023)
# Target: T1, SHP2 (Homo sapiens, UniProt Q06124)
# T1 sequence (Q06124 1-593): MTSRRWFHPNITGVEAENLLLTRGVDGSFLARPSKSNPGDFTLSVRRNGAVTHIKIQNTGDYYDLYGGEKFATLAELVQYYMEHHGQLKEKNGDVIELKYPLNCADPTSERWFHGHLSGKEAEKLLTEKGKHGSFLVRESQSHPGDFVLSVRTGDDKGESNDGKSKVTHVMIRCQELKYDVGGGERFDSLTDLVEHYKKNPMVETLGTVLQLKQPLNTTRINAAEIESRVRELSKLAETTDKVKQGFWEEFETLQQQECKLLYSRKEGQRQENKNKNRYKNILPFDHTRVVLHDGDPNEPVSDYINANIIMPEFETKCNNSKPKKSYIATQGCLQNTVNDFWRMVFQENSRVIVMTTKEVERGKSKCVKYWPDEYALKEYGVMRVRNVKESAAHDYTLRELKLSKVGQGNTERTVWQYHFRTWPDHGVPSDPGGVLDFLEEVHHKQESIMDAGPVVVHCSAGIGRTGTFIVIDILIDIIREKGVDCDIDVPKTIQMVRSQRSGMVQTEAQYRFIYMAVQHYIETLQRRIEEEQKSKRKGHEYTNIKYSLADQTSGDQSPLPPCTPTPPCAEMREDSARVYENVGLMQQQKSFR
# Assay: SHP2 allosteric inhibitor enzyme activity assay (DiFMUP fluorescence)
# Assay type: biochemical
# Details: class symbols
# Source text: SHP2 is activated by the binding of a bis-tyrosyl-phosphorylated peptide to its Src homologous 2 (SH2) domain. This subsequent activation step leads to the release of the automatic inhibition interface of SHP2, which in turn activates the SHP2 protein tyrosine phosphatase (PTP) and can be used for substrate recognition and reaction catalysis. The catalytic activity of SHP2 was monitored using the alternative DiFMUP in a rapid fluorescence assay format.
# Assay procedures are as follows:
# (1) Compound Formulation:
# The compound of the present invention (10 mM stock solution) was diluted to a suitable multiple with 100% DMSO and assay buffer, and the final test concentration of the compound of the present invention was 1 μM, 0.333 μM, 0.111 μM, 0.0370 μM, 0.0124 μM, 0.00412 μM, 0.00137 μM, 0.00046 μM, 0.00015 μM, 0.00 μM;
# (2) Preparation of Enzyme Reaction Working Fluid:
# SHP2 enzyme activity was performed using a final reaction volume of 50 μL and the following assay buffer conditions in 96-well black polystyrene plates (flat bottom, low flange, non-bonding surface) (Perki Elmer, Cat #6005270) at room temperature: 60 mM HEPES, 75 mM NaCl, 75 mM KCl, 0.05% BRIJ-35, 1 mM EDTA, 5 mM DTT.
# (3) Enzyme Catalytic Reaction and Data Monitoring:
# Compounds of the present invention were added to the corresponding 96-well plates, and no compound and enzyme were provided as blank test wells. SHP2 Activating Peptide (IRS1_pY1172 (dPEG8)pY1222) was placed on ice for melting, and 0.5 μM was added per well, then 0.2 ng SHP2 protein samples were added to corresponding well plates, and incubated at room temperature for 1 hour. Substrate DiFMUP (Invitrogen, Cat #D6567) was added to the reaction at room temperature for 1 hour. Fluorescence signals were monitored using an enzyme reader (Envision, Perki Elmer) using excitation wavelengths and emission wavelengths of 340 nm and 450 nm, respectively.
# Inhibition %=[1−(Conversion_sample−Conversion_min)/(Conversion_max−Conversion_min)]*100% Calculation formula: […]
# where: Conversion_sample is the mean reading of the sample wells; Conversion_min is the mean reading of blank control wells, representing the reading of the wells without enzyme; Conversion_max is the mean of positive control wells, representing the reading of the wells without inhibitor.
# The dose-response curve is fitted with GraphPad Prism software and IC50 was calculated by the “log[inhibitor] vs. response-variable slope” program.
row,Structure (SMILES),IC50 [nM]
1,"CC1(C)C=C(c2n[nH]c3nc(N4CCC5(CC4)Cc4ccccc4[C@H]5N)[nH]c(=O)c23)c2cn(CC(F)(F)F)nc2C1 [Example 154, (S)-6-(1-amino-1,3-dihydrospiro[indene-2,4′-piperidin]-1′-yl)-3-(6,6-dimethyl-2-(2,2,2-trifluoroethyl)-6,7-dihydro-2H-indazol-4-yl)-1,5-dihydro-4H-pyrazolo[3,4-d]pyrimidin-4-one]",≤ 20
2,"C[C@@H]1OCC2(CCN(c3nc4[nH]nc(C5(c6ccnc(N)c6Cl)CC5)c4c(=O)[nH]3)CC2)[C@@H]1N [Example 291, 3-(1-(2-amino-3-chloropyridin-4-yl)cyclopropyl)-6-((3S,4S)-4-amino-3-methyl-2-oxa-8-azaspiro[4.5]decan-8-yl)-1,5-dihydro-4H-pyrazolo[3,4-d]pyrimidin-4-one]",20 to 60
3,"C[C@@H]1OCC2(CCN(c3nc(N)c(C4(c5ccccc5)CC4)c(=O)n3C)CC2)[C@@H]1N [Example 264, 6-amino-2-((3S,4S)-4-amino-3-methyl-2-oxa-8-azaspiro[4.5]decan-8-yl)-3-methyl-5-(1-phenylcyclopropyl)pyrimidin-4(3H)-one]",> 60
4,"C[C@@H]1OCC2(CCN(c3nc4[nH]nc(C5(c6ccccc6C(F)(F)F)CC5)c4c(=O)[nH]3)CC2)[C@@H]1N [Example 298, 6-((3S,4S)-4-amino-3-methyl-2-oxa-8-azaspiro[4.5]decan-8-yl)-3-(1-(2-(trifluoromethyl)phenyl)cyclopropyl)-1,5-dihydro-4H-pyrazolo[3,4-d]pyrimidin-4-one]",> 60
5,"N[C@@H]1c2ccccc2CC12CCN(c1nc3[nH]nc(C4=CCNc5ccccc54)c3c(=O)[nH]1)CC2 [Example 177, (S)-6-(1-amino-1,3-dihydrospiro[indene-2,4′-piperidin]-1′-yl)-3-(1,2-dihydroquinolin-4-yl)-1,5-dihydro-4H-pyrazolo[3,4-d]pyrimidin-4-one]",≤ 20
6,"C[C@@H]1OCC2(CCN(c3nc4[nH]nc(C5(c6ccc7c(c6)OCO7)CC5)c4c(=O)[nH]3)CC2)[C@@H]1N [Example 286, 6-((3S,4S)-4-amino-3-methyl-2-oxa-8-azaspiro[4.5]decan-8-yl)-3-(1-(benzo[d][1,3]dioxol-5-yl)cyclopropyl)-1,5-dihydro-4H-pyrazolo[3,4-d]pyrimidin-4-one]",20 to 60
7,"N[C@@H]1c2ccccc2CC12CCN(c1nc3[nH]nc(C4=C(F)CCc5nc(Cl)ccc54)c3c(=O)[nH]1)CC2 [Example 188, (S)-6-(1-amino-1,3-dihydrospiro[indene-2,4′-piperidin]-1′-yl)-3-(2-chloro-6-fluoro-7,8-dihydroquinolin-5-yl)-1,5-dihydro-4H-pyrazolo[3,4-d]pyrimidin-4-one]",≤ 20
8,"C[C@@H]1OCC2(CCN(c3nc4[nH]nc(C5(c6cccc(C(F)(F)F)c6)CC5)c4c(=O)[nH]3)CC2)[C@@H]1N [Example 297, 6-((3S,4S)-4-amino-3-methyl-2-oxa-8-azaspiro[4.5]decan-8-yl)-3-(1-(3-(trifluoromethyl)phenyl)cyclopropyl)-1,5-dihydro-4H-pyrazolo[3,4-d]pyrimidin-4-one]",20 to 60
9,"COc1cc(C2(c3n[nH]c4nc(N5CCC6(CC5)CO[C@@H](C)[C@H]6N)[nH]c(=O)c34)CC2)ccc1F [Example 289, 6-((3S,4S)-4-amino-3-methyl-2-oxa-8-azaspiro[4.5]decan-8-yl)-3-(1-(4-fluoro-3-methoxyphenyl)cyclopropyl)-1,5-dihydro-4H-pyrazolo[3,4-d]pyrimidin-4-one]",> 60
10,"CC1(C)C=C(c2n[nH]c3nc(N4CCC5(CC4)Cc4ccccc4[C@H]5N)[nH]c(=O)c23)c2ccc(Cl)nc2C1 [Example 161, (S)-6-(1-amino-1,3-dihydrospiro[indene-2,4′-piperidin]-1′-yl)-3-(2-chloro-7,7-dimethyl-7,8-dihydroquinolin-5-yl)-1,5-dihydro-4H-pyrazolo[3,4-d]pyrimidin-4-one]",≤ 20
11,"C[C@@H]1OCC2(CCN(c3nc4[nH]nc(C5(c6cccc(C#N)c6)CC5)c4c(=O)[nH]3)CC2)[C@@H]1N [Example 290, 3-(1-(6-((3S,4S)-4-amino-3-methyl-2-oxa-8-azaspiro[4.5]decan-8-yl)-4-oxo-4,5-dihydro-1H-pyrazolo[3,4-d]pyrimidin-3-yl)cyclopropyl)benzonitrile]",20 to 60
12,"C[C@@H]1OCC2(CCN(c3nc4[nH]nc(C5(c6nncs6)CC5)c4c(=O)[nH]3)CC2)[C@@H]1N [Example 280, 3-(1-(1,3,4-thiadiazol-2-yl)cyclopropyl)-6-((3S,4S)-4-amino-3-methyl-2-oxa-8-azaspiro[4.5]decan-8-yl)-1,5-dihydro-4H-pyrazolo[3,4-d]pyrimidin-4-one]",> 60
13,"N[C@@H]1c2ccccc2CC12CCN(c1nc3[nH]nc(C4=CCOc5ccccc54)c3c(=O)[nH]1)CC2 [Example 173, (S)-6-(1-amino-1,3-dihydrospiro[indene-2,4′-piperidin]-1′-yl)-3-(2H-chromen-4-yl)-1,5-dihydro-4H-pyrazolo[3,4-d]pyrimidin-4-one]",≤ 20
14,"CC1(C)C=C(c2n[nH]c3nc(N4CCC5(CC4)Cc4ccccc4[C@H]5N)[nH]c(=O)c23)c2cnn(C3CC3)c2C1 [Example 152, (S)-6-(1-amino-1,3-dihydrospiro[indene-2,4′-piperidin]-1′-yl)-3-(1-cyclopropyl-6,6-dimethyl-6,7-dihydro-1H-indazol-4-yl)-1,5-dihydro-4H-pyrazolo[3,4-d]pyrimidin-4-one]",20 to 60

# Next, values leading:
row,IC50 [nM],Structure (SMILES)
1,≤ 20,"N[C@@H]1c2ccccc2CC12CCN(c1nc3[nH]nc(C4(c5ccccc5OC(F)(F)F)CC4)c3c(=O)[nH]1)CC2 [Example 16, (S)-6-(1-amino-1,3-dihydrospiro[indene-2,4′-piperidin]-1′-yl)-3-(1-(2-(trifluoromethoxy)phenyl)cyclo-propyl)-1,5-dihydro-4H-pyrazolo[3,4-d]pyrimidin-4-one]"
2,≤ 20,"N[C@@H]1c2ccccc2CC12CCN(c1nc3[nH]nc(C4(c5ccccc5C(F)(F)F)CC4)c3c(=O)[nH]1)CC2 [Example 15, (S)-6-(1-amino-1,3-dihydrospiro[indene-2,4′-piperidin]-1′-yl)-3-(1-(2-(trifluoromethyl)phenyl)cyclo-propyl)-1,5-dihydro-4H-pyrazolo[3,4-d]pyrimidin-4-one]"
3,≤ 20,"N[C@@H]1c2ccccc2CC12CCN(c1nc3[nH]nc(C4(c5ccccn5)CC4)c3c(=O)[nH]1)CC2 [Example 23, (S)-6-(1-amino-1,3-dihydrospiro[indene-2,4′-piperidin]-1′-yl)-3-(1-(pyridin-2-yl)cyclopropyl)-1,5-dihydro-4H-pyrazolo[3,4-d]pyrimidin-4-one]"
4,≤ 20,"N[C@@H]1c2ccccc2CC12CCN(c1nc3[nH]nc(C4(c5coc6ccccc56)CC4)c3c(=O)[nH]1)CC2 [Example 250, (S)-6-(1-amino-1,3-dihydrospiro[indene-2,4′-piperidin]-1′-yl)-3-(1-(benzofuran-3-yl)cyclopropyl)-1,5-dihydro-4H-pyrazolo[3,4-d]pyrimidin-4-one]"
5,≤ 20,"N[C@@H]1c2ccccc2CC12CCN(c1nc3[nH]nc(C4(c5cocn5)CC4)c3c(=O)[nH]1)CC2 [Example 85, (S)-6-(1-amino-1,3-dihydrospiro[indene-2,4′-piperidin]-1′-yl)-3-(1-(oxazol-4-yl)cyclopropyl)-1,5-dihydro-4H-pyrazolo[3,4-d]pyrimidin-4-one]"
6,20 to 60,"C[C@@H]1OCC2(CCN(c3nc4[nH]nc(C5(c6nc7ccccc7o6)CC5)c4c(=O)[nH]3)CC2)[C@@H]1N [Example 284, 6-((3S,4S)-4-amino-3-methyl-2-oxa-8-azaspiro[4.5]decan-8-yl)-3-(1-(benzo[d]oxazol-2-yl)cyclopropyl)-1,5-dihydro-4H-pyrazolo[3,4-d]pyrimidin-4-one]"
